According to US20250346616A1 (DIZAL (JIANGSU) PHARMACEUTICAL CO., LTD., priority 2022, published 2025):

What was measured:
Recombinant ROCK1 = Recombinant ROCK1 (Homo sapiens (Human), UniProt Q13464); test: Lance Ultra Kinase Assay, ROCK1 inhibition; assay type: biochemical; settings: ATP at Km, 30 min pre-incubation, 1 h reaction
Procedure: The inhibition potency of compounds against these enzymes was assessed using Lance Ultra Kinase Assay. In brief, recombinant kinases were pre-incubated in the presence or absence of compound at room temperature for 30 minutes. The reaction was initiated by the addition of the ATP (Km) and substrate peptide which could be phosphorylated by kinases in the reaction. After 1 h incubation, the reaction was stopped by the addition of the detection reagent mix containing EDTA. The fluorescence was measured at 615 nm and 665 nm, respectively with excitation wavelength at 320 nm. The calculated signal ratio of 665 nm/615 nm is proportional to the kinase activity.

Recombinant ROCK2 = Recombinant ROCK2 (Homo sapiens (Human), UniProt O75116); test: Lance Ultra Kinase Assay, ROCK2 inhibition; assay type: biochemical; settings: ATP at Km, 30 min pre-incubation, 1 h reaction
Sequence of Recombinant ROCK2 (O75116 whole entry): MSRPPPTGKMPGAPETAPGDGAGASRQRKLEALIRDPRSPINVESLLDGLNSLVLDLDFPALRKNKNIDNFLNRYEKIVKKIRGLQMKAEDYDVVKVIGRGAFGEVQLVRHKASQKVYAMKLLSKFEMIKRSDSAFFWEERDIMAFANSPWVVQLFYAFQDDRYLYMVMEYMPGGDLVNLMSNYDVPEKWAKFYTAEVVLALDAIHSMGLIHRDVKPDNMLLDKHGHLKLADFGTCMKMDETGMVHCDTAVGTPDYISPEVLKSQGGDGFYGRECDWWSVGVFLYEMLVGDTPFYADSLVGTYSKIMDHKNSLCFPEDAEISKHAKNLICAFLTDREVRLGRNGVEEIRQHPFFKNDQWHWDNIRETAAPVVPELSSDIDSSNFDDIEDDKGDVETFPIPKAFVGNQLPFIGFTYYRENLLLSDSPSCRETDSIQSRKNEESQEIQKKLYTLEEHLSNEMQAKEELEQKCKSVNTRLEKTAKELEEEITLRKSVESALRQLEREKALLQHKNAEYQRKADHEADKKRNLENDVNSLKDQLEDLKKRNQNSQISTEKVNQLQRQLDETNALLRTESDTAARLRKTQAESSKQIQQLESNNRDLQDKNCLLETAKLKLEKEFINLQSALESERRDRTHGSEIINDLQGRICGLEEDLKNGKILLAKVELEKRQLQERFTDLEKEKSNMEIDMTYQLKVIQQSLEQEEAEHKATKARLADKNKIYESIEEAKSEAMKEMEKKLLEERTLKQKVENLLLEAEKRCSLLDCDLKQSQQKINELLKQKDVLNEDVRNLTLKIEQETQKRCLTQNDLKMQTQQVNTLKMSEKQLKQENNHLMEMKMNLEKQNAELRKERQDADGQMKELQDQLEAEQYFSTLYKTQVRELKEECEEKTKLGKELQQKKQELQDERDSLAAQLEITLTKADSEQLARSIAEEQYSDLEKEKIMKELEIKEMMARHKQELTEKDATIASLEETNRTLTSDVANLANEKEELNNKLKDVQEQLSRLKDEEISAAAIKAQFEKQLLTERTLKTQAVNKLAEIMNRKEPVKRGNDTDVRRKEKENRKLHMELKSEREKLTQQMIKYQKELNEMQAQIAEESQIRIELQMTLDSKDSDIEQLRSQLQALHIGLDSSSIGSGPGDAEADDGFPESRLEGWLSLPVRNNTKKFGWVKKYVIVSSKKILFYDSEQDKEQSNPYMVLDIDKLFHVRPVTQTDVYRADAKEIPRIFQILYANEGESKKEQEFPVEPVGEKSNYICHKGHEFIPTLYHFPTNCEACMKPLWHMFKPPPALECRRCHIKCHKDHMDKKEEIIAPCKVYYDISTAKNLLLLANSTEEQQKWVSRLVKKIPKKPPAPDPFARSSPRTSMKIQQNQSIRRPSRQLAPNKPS

Sequence of Recombinant ROCK1 (Q13464 whole entry): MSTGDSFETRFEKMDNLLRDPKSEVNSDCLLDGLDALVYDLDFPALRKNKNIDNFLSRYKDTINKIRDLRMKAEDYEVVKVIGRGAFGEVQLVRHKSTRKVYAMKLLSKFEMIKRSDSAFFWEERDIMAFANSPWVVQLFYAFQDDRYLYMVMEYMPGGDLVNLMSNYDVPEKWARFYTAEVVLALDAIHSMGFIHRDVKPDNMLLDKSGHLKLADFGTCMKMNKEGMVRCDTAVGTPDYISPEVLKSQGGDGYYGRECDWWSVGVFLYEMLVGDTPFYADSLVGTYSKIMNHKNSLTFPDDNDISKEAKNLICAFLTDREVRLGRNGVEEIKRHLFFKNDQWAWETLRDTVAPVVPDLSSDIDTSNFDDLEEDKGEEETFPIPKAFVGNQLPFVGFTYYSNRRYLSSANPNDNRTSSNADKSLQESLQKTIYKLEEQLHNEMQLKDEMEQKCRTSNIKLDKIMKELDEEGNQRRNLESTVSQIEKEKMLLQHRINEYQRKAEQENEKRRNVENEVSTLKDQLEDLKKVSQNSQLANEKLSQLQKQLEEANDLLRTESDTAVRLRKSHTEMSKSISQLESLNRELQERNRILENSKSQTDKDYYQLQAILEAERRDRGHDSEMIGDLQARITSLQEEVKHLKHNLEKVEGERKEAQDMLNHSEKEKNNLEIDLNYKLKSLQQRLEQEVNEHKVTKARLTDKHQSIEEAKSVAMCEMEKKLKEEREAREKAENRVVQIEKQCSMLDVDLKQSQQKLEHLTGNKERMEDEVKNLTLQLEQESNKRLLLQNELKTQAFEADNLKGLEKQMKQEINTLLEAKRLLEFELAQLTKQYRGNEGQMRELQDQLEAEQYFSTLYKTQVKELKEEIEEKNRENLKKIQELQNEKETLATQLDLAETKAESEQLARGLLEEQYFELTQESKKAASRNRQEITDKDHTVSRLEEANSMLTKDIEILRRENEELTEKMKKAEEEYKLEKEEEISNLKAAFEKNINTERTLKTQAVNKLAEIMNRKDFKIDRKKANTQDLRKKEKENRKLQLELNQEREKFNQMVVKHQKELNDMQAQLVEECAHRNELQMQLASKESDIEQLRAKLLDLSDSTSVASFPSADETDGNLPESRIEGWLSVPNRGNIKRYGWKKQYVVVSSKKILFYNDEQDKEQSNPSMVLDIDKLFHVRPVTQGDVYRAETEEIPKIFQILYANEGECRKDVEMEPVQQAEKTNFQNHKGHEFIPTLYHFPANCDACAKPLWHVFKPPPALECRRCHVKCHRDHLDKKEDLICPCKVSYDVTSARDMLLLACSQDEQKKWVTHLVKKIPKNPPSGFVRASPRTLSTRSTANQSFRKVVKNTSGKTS

SMILES | IC50 (Recombinant ROCK1) [nM] | IC50 (Recombinant ROCK2) [nM]
COc1cc(C(CN)C(=O)Nc2cccc3c(-c4cn[nH]c4)c[nH]c23)ccc1CO (racemic) [Example 101, 3-amino-2-[4-(hydroxymethyl)-3-methoxyphenyl]-N-[3-(1H-pyrazol-4-yl)-1H-indol-7-yl]propanamide] | 1.6 | 0.81
CNC(=O)OCc1cccc(C(CN)C(=O)Nc2cccc3c(-c4cn[nH]c4)c[nH]c23)c1 (single isomer, unassigned) [Example 50, 3-(1-((3-(1H-pyrazol-4-yl)-1H-indol-7-yl)amino)-3-amino-1-oxopropan-2-yl)benzyl methylcarbamate] | 0.32 | 0.22
COc1cncc(C(CN)C(=O)Nc2cccc3c(-c4cn[nH]c4)c[nH]c23)c1 (racemic) [Example 102, 3-amino-2-(5-methoxypyridin-3-yl)-N-[3-(1H-pyrazol-4-yl)-1H-indol-7-yl]propanamide] | 1.3 | 0.56
CN(C)C(=O)c1ccc(C(CN)C(=O)Nc2cccc3c(-c4cn[nH]c4)c[nH]c23)cc1 (racemic) [Example 72, 4-(2-amino-1-{[3-(1H-pyrazol-4-yl)-1H-indol-7-yl]carbamoyl}ethyl)-N,N-dimethylbenzamide] | 173 | 67
NCC(C(=O)Nc1cccc2c(-c3cn[nH]c3)c[nH]c12)C1CCOC1 (racemic) [Example 96, N-(3-(1H-pyrazol-4-yl)-1H-indol-7-yl)-3-amino-2-(tetrahydrofuran-3-yl)propanamide] | 7.3 | 4
COc1cc(OC)cc(C(N)C(=O)Nc2cccc3c(-c4cn[nH]c4)c[nH]c23)c1 (racemic) [Example 83, 2-amino-2-(3,5-dimethoxyphenyl)-N-[3-(1H-pyrazol-4-yl)-1H-indol-7-yl]acetamide] | 7.3 | 3.1
COc1cccc(C(CN)NC(=O)c2cccc3c(-c4cn[nH]c4)c[nH]c23)c1 (single isomer, unassigned) [Example 139, N-(2-amino-1-(3-methoxyphenyl)ethyl)-3-(1H-pyrazol-4-yl)-1H-indole-7-carboxamide] | 5.5 | 3.1
NC[C@@H](C(=O)Nc1ncnc2c(-c3cn[nH]c3)c[nH]c12)c1ccccc1 [Example 155, (2S)-3-amino-2-phenyl-N-[7-(1H-pyrazol-4-yl)-5H-pyrrolo[3,2-d]pyrimidin-4-yl]propanamide] | 0.96 | 
NCC(C(=O)Nc1cccc2c(-c3cn[nH]c3)c[nH]c12)c1ccc(C(N)=O)cc1 (single isomer, unassigned) [Example 113, 4-(1-((3-(1H-pyrazol-4-yl)-1H-indol-7-yl)amino)-3-amino-1-oxopropan-2-yl)benzamide] | 110 | 43
CP(C)(=O)c1cccc(C(CN)NC(=O)c2cccc3c(-c4cn[nH]c4)c[nH]c23)c1 (racemic) [Example 151, (rac)-N-{2-amino-1-[3-(dimethylphosphoryl)phenyl]ethyl}-3-(1H-pyrazol-4-yl)-1H-indole-7-carboxamide] | 204 | 71
N[C@@H](Cc1c[nH]cn1)C(=O)Nc1cccc2c(-c3cn[nH]c3)c[nH]c12 [Example 108, (2S)-2-amino-3-(1H-imidazol-4-yl)-N-[3-(1H-pyrazol-4-yl)-1H-indol-7-yl]propanamide] | 98 | 
Cc1n[nH]cc1-c1c[nH]c2c(NC(=O)[C@H](CN)c3ccccc3)cccc12 [Example 55, (S)-3-amino-N-(3-(3-methyl-1H-pyrazol-4-yl)-1H-indol-7-yl)-2-phenylpropanamide] | 2.9 | 
Cc1n[nH]c(C)c1-c1c[nH]c2c(NC(=O)[C@H](CN)c3ccccc3)cccc12 [Example 56, (2S)-3-amino-N-[3-(3,5-dimethyl-1H-pyrazol-4-yl)-1H-indol-7-yl]-2-phenyl-propanamide] | 1190 | 
O=C(Nc1cccc2c(-c3cn[nH]c3)c[nH]c12)[C@@H]1CCCN1 [Example 128, (2S)-N-[3-(1H-pyrazol-4-yl)-1H-indol-7-yl]pyrrolidine-2-carboxamide] | 111 | 
NC[C@@H](C(=O)Nc1cccc2c(-c3c[nH]nc3F)c[nH]c12)c1ccccc1 [Example 57, (S)-3-amino-N-(3-(3-fluoro-1H-pyrazol-4-yl)-1H-indol-7-yl)-2-phenylpropanamide] | 2.7 | 

Other lines, results leading:

IC50 (Recombinant ROCK1) [nM] | IC50 (Recombinant ROCK2) [nM] | SMILES
0.88 | 0.4 | NCC(Cc1ccccc1)NC(=O)c1cccc2c(-c3cn[nH]c3)c[nH]c12 (racemic) [Example 147, N-(1-amino-3-phenylpropan-2-yl)-3-(1H-pyrazol-4-yl)-1H-indole-7-carboxamide]
149 | 65 | COc1cccc(C(CN2CCN(C)CC2)NC(=O)c2cccc3c(-c4cn[nH]c4)c[nH]c23)c1 (single isomer, unassigned) [Example 137, N-(1-(3-methoxyphenyl)-2-(4-methylpiperazin-1-yl)ethyl)-3-(1H-pyrazol-4-yl)-1H-indole-7-carboxamide]
11 | 8.9 | NC(C(=O)Nc1cccc2c(-c3cn[nH]c3)c[nH]c12)C1CCCCC1 (racemic) [Example 122, N-(3-(1H-pyrazol-4-yl)-1H-indol-7-yl)-2-amino-2-cyclohexylacetamide]
321 | 174 | COc1cccc(C(CN2CCN(C)CC2)C(=O)Nc2cccc3c(-c4cn[nH]c4)c[nH]c23)c1 (single isomer, unassigned) [Example 36, N-(3-(1H-pyrazol-4-yl)-1H-indol-7-yl)-2-(3-methoxyphenyl)-3-(4-methylpiperazin-1-yl)propanamide]
6 | 3.7 | CC(N)(C(=O)Nc1cccc2c(-c3cn[nH]c3)c[nH]c12)c1ccccc1 (racemic) [Example 107, 2-amino-2-phenyl-N-[3-(1H-pyrazol-4-yl)-1H-indol-7-yl]propanamide]
1.6 | 0.84 | CN1CCN(C(C(=O)Nc2cccc3c(-c4cn[nH]c4)c[nH]c23)c2ccccc2)CC1 (single isomer, unassigned) [Example 48, N-(3-(1H-pyrazol-4-yl)-1H-indol-7-yl)-2-(4-methylpiperazin-1-yl)-2-phenylacetamide]
73 | 23 | COc1cccc(C(CN2CCN(C)CC2)NC(=O)c2cccc3c(-c4cn[nH]c4)c[nH]c23)c1 (single isomer, unassigned) [Example 138, N-(1-(3-methoxyphenyl)-2-(4-methylpiperazin-1-yl)ethyl)-3-(1H-pyrazol-4-yl)-1H-indole-7-carboxamide]
2.9 | 1.7 | NCC(C(=O)Nc1cccc2c(-c3cn[nH]c3)c[nH]c12)c1ccc(O)cc1 (racemic) [Example 79, N-(3-(1H-pyrazol-4-yl)-1H-indol-7-yl)-3-amino-2-(4-hydroxyphenyl)-propanamide]
0.37 | 0.19 | NCC(C(=O)Nc1cccc2c(-c3cn[nH]c3)c[nH]c12)c1cccc(O)c1 (single isomer, unassigned) [Example 64, N-(3-(1H-pyrazol-4-yl)-1H-indol-7-yl)-3-amino-2-(3-hydroxyphenyl)propanamide]
0.18 | 0.09 | NC[C@H](Cc1ccccc1)C(=O)Nc1cccc2c(-c3cn[nH]c3)c[nH]c12 [Example 54, (2S)-3-amino-2-benzyl-N-[3-(1H-pyrazol-4-yl)-1H-indol-7-yl]propanamide]
331 | 163 | COc1cccc(C(NC(=O)c2cccc3c(-c4cn[nH]c4)c[nH]c23)C2CCN(C)CC2)c1 (single isomer, unassigned) [Example 141, N-((3-methoxyphenyl) (1-methylpiperidin-4-yl)methyl)-3-(1H-pyrazol-4-yl)-1H-indole-7-carboxamide]
1.2 | 0.66 | NCC(C(=O)Nc1cccc2c(-c3cn[nH]c3)c[nH]c12)c1cccc(Cl)c1 (racemic) [Example 89, 3-amino-2-(3-chlorophenyl)-N-[3-(1H-pyrazol-4-yl)-1H-indol-7-yl]propanamide]
125 | 70 | N#Cc1cccc(C(CN)C(=O)Nc2cccc3c(-c4cn[nH]c4)c[nH]c23)c1 (single isomer, unassigned) [Example 21, N-(3-(1H-pyrazol-4-yl)-1H-indol-7-yl)-3-amino-2-(3-cyanophenyl)propanamide]
0.33 | 0.18 | CN1CCN(C[C@@H](C(=O)Nc2cccc3c(-c4cn[nH]c4)c[nH]c23)c2ccccc2)CC1 [Example 40]
21 | 9.2 | N#Cc1cccc([C@H](N)C(=O)Nc2cccc3c(-c4cn[nH]c4)c[nH]c23)c1 (single isomer, unassigned) [Example 69, N-(3-(1H-pyrazol-4-yl)-1H-indol-7-yl)-2-amino-2-(3-cyanophenyl) acetamide]
2 | 0.9 | COc1ccc(C(N)C(=O)Nc2cccc3c(-c4cn[nH]c4)c[nH]c23)cc1 (racemic) [Example 104, 2-amino-2-(4-methoxyphenyl)-N-[3-(1H-pyrazol-4-yl)-1H-indol-7-yl]acetamide]
2.2 |  | NC[C@H](C(=O)Nc1cccc2c(-c3cn[nH]c3)c[nH]c12)c1ccccc1 [Example 14, (R)-N-(3-(1H-pyrazol-4-yl)-1H-indol-7-yl)-3-amino-2-phenylpropanamide]
6.3 |  | N[C@H](Cc1ccccc1)C(=O)Nc1cccc2c(-c3cn[nH]c3)c[nH]c12 [Example 126, (R)-N-(3-(1H-pyrazol-4-yl)-1H-indol-7-yl)-2-amino-3-phenylpropanamide]
75 |  | COC[C@H](C(=O)Nc1cccc2c(-c3cn[nH]c3)c[nH]c12)N1CCN(C)CC1 [Example 121, (2R)-3-methoxy-2-(4-methylpiperazin-1-yl)-N-[3-(1H-pyrazol-4-yl)-1H-indol-7-yl]propanamide]
20 |  | N[C@@H](C(=O)Nc1cccc2c(-c3cn[nH]c3)c[nH]c12)c1ccccc1 [Example 8, (2R)-2-amino-2-phenyl-N-[3-(1H-pyrazol-4-yl)-1H-indol-7-yl]acetamide]
1.4 |  | NC[C@@H](C(=O)Nc1cccc2c(-c3cn[nH]c3)c[nH]c12)c1ccccc1 [Example 15, (S)—N-(3-(1H-pyrazol-4-yl)-1H-indol-7-yl)-3-amino-2-phenylpropanamide]
